{"source": "patent US6586442B2", "about": "“Benzofurane derivatives, their preparation process, their use as medicaments and the pharmaceutical compositions containing them” (priority 1999, dated 2003)", "data": [{"molecular_target": "human αvβ3 receptor (Homo sapiens, UniProt P05106+P06756)", "sequence (P06756 31-889 limits assumed)": "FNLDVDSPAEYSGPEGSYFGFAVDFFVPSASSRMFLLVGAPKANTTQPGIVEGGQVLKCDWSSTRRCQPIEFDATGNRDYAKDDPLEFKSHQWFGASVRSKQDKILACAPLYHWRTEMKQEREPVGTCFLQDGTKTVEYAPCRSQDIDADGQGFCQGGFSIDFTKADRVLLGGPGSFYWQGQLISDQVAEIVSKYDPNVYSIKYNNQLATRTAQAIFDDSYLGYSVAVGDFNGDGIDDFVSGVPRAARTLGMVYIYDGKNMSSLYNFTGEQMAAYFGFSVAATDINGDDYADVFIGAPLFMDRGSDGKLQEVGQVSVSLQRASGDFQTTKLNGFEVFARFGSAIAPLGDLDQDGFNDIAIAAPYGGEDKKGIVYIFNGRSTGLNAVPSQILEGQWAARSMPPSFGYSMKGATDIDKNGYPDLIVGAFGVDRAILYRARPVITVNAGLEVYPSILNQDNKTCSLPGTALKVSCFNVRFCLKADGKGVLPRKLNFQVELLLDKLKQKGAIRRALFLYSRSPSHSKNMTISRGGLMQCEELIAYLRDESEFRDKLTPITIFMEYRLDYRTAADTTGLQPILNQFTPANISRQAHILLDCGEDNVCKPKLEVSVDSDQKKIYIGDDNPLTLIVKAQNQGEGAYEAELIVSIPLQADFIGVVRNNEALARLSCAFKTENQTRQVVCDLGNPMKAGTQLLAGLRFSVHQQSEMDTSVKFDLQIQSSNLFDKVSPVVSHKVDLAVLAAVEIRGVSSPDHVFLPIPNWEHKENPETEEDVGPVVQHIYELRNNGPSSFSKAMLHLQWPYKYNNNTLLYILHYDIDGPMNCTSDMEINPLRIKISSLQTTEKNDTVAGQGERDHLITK", "sequence (P06756 891-1048 limits assumed)": "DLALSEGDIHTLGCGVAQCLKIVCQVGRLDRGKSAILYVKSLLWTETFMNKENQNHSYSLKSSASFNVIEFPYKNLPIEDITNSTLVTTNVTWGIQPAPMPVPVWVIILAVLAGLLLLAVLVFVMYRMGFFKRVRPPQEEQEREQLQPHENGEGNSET", "sequence (P05106 27-788)": "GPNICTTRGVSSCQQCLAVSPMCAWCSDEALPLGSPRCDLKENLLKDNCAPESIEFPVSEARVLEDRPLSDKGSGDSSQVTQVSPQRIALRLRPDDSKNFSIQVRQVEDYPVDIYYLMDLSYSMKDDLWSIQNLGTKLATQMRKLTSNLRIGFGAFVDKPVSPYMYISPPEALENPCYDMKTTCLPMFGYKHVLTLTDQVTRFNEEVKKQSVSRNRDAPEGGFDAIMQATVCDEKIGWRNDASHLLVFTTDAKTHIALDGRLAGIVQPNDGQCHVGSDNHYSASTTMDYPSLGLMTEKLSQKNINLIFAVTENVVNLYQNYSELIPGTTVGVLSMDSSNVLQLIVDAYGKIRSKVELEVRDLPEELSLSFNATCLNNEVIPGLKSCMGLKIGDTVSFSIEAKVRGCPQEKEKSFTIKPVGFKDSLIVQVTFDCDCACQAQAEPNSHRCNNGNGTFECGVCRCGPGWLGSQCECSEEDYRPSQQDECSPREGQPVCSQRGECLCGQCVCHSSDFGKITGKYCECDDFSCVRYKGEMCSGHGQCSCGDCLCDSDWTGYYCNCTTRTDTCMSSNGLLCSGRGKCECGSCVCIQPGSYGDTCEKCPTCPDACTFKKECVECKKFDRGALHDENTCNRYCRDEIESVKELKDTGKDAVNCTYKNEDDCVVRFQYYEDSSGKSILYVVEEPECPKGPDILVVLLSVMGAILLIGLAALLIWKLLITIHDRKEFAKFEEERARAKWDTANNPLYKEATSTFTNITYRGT", "assay": "Kistrin/Vitronectin Receptor (αvβ3) ELISA test", "format": "binding", "conditions": "not given", "procedure": "(§1) Kistrin/Vitronectin Receptor (αvβ3) ELISA Test Protocol:\n(§2) 96-well MaxiSorp plates are coated overnight at […] with 100 μl of Kistrin at 1 μg/ml (dilution in coating buffer: 0.05M (carbonate)/NaOH pH 9.6. The next day, the wells are emptied and the ligands (kistrin) are then fixed (fixation buffers: PBS containing 0.5% BSA (pH=7.4)) for 1 hour at ambient temperature under gentle agitation of 125 rpm. The wells are washed six times (washing buffer: PBS containing 0.05% Tween 20 (pH 7.7) then the following is added per well and in this order:\n(§3) 40 μl of incubation buffer\n(§4) 10 μl of the dilution of the product to be tested (the products are diluted in a 50:50 DMSO/water mixture)\n(§5) 50 μl of human αvβ3 receptor (cf Pytel et al. Methods Enzymol. (1987) 144 (Dilution in incubation buffer, adapted according to the batch of receptor and according to the ligand). The ligand, the αvβ3 receptor and the products to be studied are incubated for 3 hours at ambient temperature with gentle agitation of 125 rpm.\n(§6) The wells are again washed six times, then incubated for 2 hours at ambient temperature with gentle agitation of 125 rpm, in the presence of 100 μl of anti-receptor antibody coupled to a peroxidase (The 4B12-HRP antibody is diluted in incubation buffer (50 mM TRIS pH 7.4; 0.5% BSA; 0.05% Tween 20; 1 mM MnCl2; 50 μM CaCl2; 50 μM MgCl2; 100 mM NaCl). The dilution is to be adapted according to the batch of receptor.\n(§7) The wells are then washed six times before measurement of the ligand-receptor bond is carried out using a peroxidase developer kit (TBM Microwell Peroxidase Substrate System Kirkegaard; Ref cat 50-76-00).\n(§8) This kit contains a flask A of substrate (3,3′,5,5′-tetramethylebenzidine at 0.4 g/l) and a flask B (H2O2 to 0.02% in Citrate/Citric acid). Extemporaneously, one volume of A is mixed with one volume of B, then the reaction mixture is distributed at a rate of 100 μl/wells.\n(§9) The enzymatic reaction develops between 6 to 10 minutes for Kistrin/αvβ3 then its development is stopped by the addition of 100 μl of 1M phosphoric acid. The optical density is determined at 450 nm.\n(§10) Expression of the results\n(§11) The following curve is plotted: the bond percentage as a function of the logarithm of each concentration of the tested product.\n(§12) For each product IC50 is determined according to the following formula: IC50=(B0+Bmin)/2\n(§13) B0=Maximum bond in the absence of any product\n(§14) Bmin=Minimum bond in the presence of the highest concentration of the product.", "units": {"IC50": "nM"}, "values": [{"smiles": "CC(C)OC(=O)C(Cc1cc2cc(CCC(=O)NC3=NCCCN3)ccc2o1)NS(=O)(=O)c1cccc2ccccc12", "note": "(centres unmarked) [Example 14]", "IC50": 3700}]}, {"molecular_target": "human αvβ3 receptor (Homo sapiens, UniProt P05106+P06756)", "assay": "Kistrin/Vitronectin Receptor (αvβ3) ELISA test", "format": "binding", "conditions": "Kistrin-coated plates, human αvβ3 receptor, 3 hours at ambient temperature, OD 450 nm; read-out: K/VnR IC50", "procedure": "as §1, §2, §3, §4, §5, §6, §7, §8, §9, §10, §11, §12, §13, §14", "units": {"IC50": "nM"}, "values": [{"smiles": "O=C(CCc1ccc2oc(CC(NC(=O)OCc3ccccc3)C(=O)O)cc2c1)NC1=NCCCN1", "note": "(stereo not drawn) [Example 1, 5-[3-oxo-3-[(1,4,5,6-tetrahydro-2-pyrimidinyl)amino)propyl]-α-[[(phenylmethoxy)carbonyl]-amino]-2-benzofuranepropanoic acid]", "IC50": 9}, {"smiles": "O=C(CCc1ccc2oc(CC(NC(=O)OCC34CC5CC(CC(C5)C3)C4)C(=O)O)cc2c1)NC1=NCCCN1", "note": "(stereo not drawn) [Example 5, Mono(trifluoroacetate) of 5-[3-oxo-3-[(1,4,5,6-tetrahydro-2-pyrimidinyl)amino]propyl]-α-[[[(tricyclo[3.3.1.1^3,7]dec-1-yl)methoxy]carbonyl]amino]-2-benzofuranpropanoic acid]", "IC50": 45}, {"smiles": "O=C(CCc1ccc2oc(CC(NS(=O)(=O)NC(=O)OCC34CC5CC(CC(C5)C3)C4)C(=O)O)cc2c1)NC1=NCCCN1", "note": "(stereo not drawn) [Example 6, 5-[3-oxo-3-[(1,4,5,6-tetrahydro-2-pyrimidinyl)amino]-propyl]-α-[[[[[(tricyclo [2.3.1.1^3,7]dec-1-yl)methoxy]-carbonyl]amino]sulphonyl]amino]-2-benzofuranpropanoic acid]", "IC50": 65}, {"smiles": "O=C(CCc1ccc2oc(CC(NS(=O)(=O)NC(=O)OCc3ccccc3)C(=O)O)cc2c1)NC1=NCCCN1", "note": "(centres unmarked) [Example 7]", "IC50": 10}, {"smiles": "O=C(CCc1ccc2oc(CC(NS(=O)(=O)NCc3ccccc3)C(=O)O)cc2c1)NC1=NCCCN1", "note": "(centres unmarked) [Example 8, Mono(trifluoroacetate) ofα-[[[(phenylmethyl)-amino]sulphonyl]amino]-5-[3-oxo-3-[(1,4,5,6-tetrahydro-2-pyrimidinyl)amino]propyl]-2-benzofuranpropanoic acid]", "IC50": 8.7}, {"smiles": "CC(C)(C)c1ccc(S(=O)(=O)NC(Cc2cc3cc(CCC(=O)NC4=NCCCN4)ccc3o2)C(=O)O)cc1", "note": "(stereo not drawn) [Example 9, α-[[[4-(1,1-dimethylethyl)phenyl]sulphonyl]amino]-5-(3-oxo-3-[(1,4,5,6-tetrahydro-2-pyrimidinyl)amino]propyl]-2-benzofuranpropanoic acid]", "IC50": 15}, {"smiles": "CC(C)c1ccc(S(=O)(=O)NC(Cc2cc3cc(CCC(=O)NC4=NCCCN4)ccc3o2)C(=O)O)cc1", "note": "(stereo not drawn) [Example 10, α-[[[4-(1-methylethyl)phenyl]sulphonyl]amino]-5-(3-oxo-3-[(1,4,5,6-tetrahydro-2-pyrimidinyl)amino]propyl]-2-benzofuranpropanoic acid]", "IC50": 9.1}, {"smiles": "CCCS(=O)(=O)NC(Cc1cc2cc(CCC(=O)NC3=NCCCN3)ccc2o1)C(=O)O", "note": "(centres unmarked) [Example 11]", "IC50": 5.7}, {"smiles": "CS(=O)(=O)NC(Cc1cc2cc(CCC(=O)NC3=NCCCN3)ccc2o1)C(=O)O", "note": "(centres unmarked) [Example 12]", "IC50": 6.7}, {"smiles": "O=C(CCc1ccc2oc(CC(NS(=O)(=O)c3cccc4ccccc34)C(=O)O)cc2c1)NC1=NCCCN1", "note": "(stereo not drawn) [Example 13, α-[(1-naphthalenylsulphonyl)amino]-5-[3-oxo-3-[(1,4,5,6-tetrahydro-2-pyrimidinyl)amino]propyl]—2-benzofuranpropanoic acid]", "IC50": 5.5}]}]}
